{"source": "the NIST ThermoML archive (doi:10.1016/j.jct.2014.01.012)", "test": "refractive index (Na D-line) (dimensionless); xn = mol fraction of the nth substance listed", "settings": "101 kPa, Liquid, Standard Abbe refractometry", "note": "Numbers after ± are expanded uncertainties.", "data": [{"compound": "CCCCCCn1cc[n+](C)c1.F[P-](F)(F)(F)(F)F", "note": "[1-hexyl-3-methylimidazolium hexafluorophosphate] + CCCCOC(C)=O", "values": [{"measurement": "refractive index", "setting": "293.15 K, x1 = 0.0956", "value": "1.40012 ± 0.00044"}, {"measurement": "refractive index", "setting": "293.15 K, x1 = 0.1919", "value": "1.40555 ± 0.00046"}, {"measurement": "refractive index", "setting": "293.15 K, x1 = 0.273", "value": "1.40899 ± 0.00048"}, {"measurement": "refractive index", "setting": "293.15 K, x1 = 0.3698", "value": "1.41222 ± 0.00051"}, {"measurement": "refractive index", "setting": "293.15 K, x1 = 0.4639", "value": "1.41432 ± 0.00053"}, {"measurement": "refractive index", "setting": "293.15 K, x1 = 0.5701", "value": "1.41616 ± 0.00057"}, {"measurement": "refractive index", "setting": "293.15 K, x1 = 0.6787", "value": "1.41768 ± 0.0006"}, {"measurement": "refractive index", "setting": "293.15 K, x1 = 0.7746", "value": "1.41841 ± 0.00064"}, {"measurement": "refractive index", "setting": "293.15 K, x1 = 0.8707", "value": "1.41937 ± 0.00067"}, {"measurement": "refractive index", "setting": "293.15 K, x1 = 0.9354", "value": "1.41972 ± 0.0007"}, {"measurement": "refractive index", "setting": "293.15 K, x1 = 1", "value": "1.42064 ± 0.00072"}, {"measurement": "refractive index", "setting": "298.15 K, x1 = 0.0956", "value": "1.39835 ± 0.00044"}, {"measurement": "refractive index", "setting": "298.15 K, x1 = 0.1919", "value": "1.40397 ± 0.00046"}, {"measurement": "refractive index", "setting": "298.15 K, x1 = 0.273", "value": "1.40746 ± 0.00048"}, {"measurement": "refractive index", "setting": "298.15 K, x1 = 0.3698", "value": "1.41064 ± 0.00051"}, {"measurement": "refractive index", "setting": "298.15 K, x1 = 0.4639", "value": "1.41299 ± 0.00053"}, {"measurement": "refractive index", "setting": "298.15 K, x1 = 0.5701", "value": "1.41482 ± 0.00057"}, {"measurement": "refractive index", "setting": "298.15 K, x1 = 0.6787", "value": "1.41633 ± 0.0006"}, {"measurement": "refractive index", "setting": "298.15 K, x1 = 0.7746", "value": "1.41727 ± 0.00064"}, {"measurement": "refractive index", "setting": "298.15 K, x1 = 0.8707", "value": "1.41819 ± 0.00067"}, {"measurement": "refractive index", "setting": "298.15 K, x1 = 0.9354", "value": "1.41876 ± 0.0007"}, {"measurement": "refractive index", "setting": "298.15 K, x1 = 1", "value": "1.41935 ± 0.00072"}, {"measurement": "refractive index", "setting": "303.15 K, x1 = 0.0956", "value": "1.39654 ± 0.00044"}, {"measurement": "refractive index", "setting": "303.15 K, x1 = 0.1919", "value": "1.40209 ± 0.00046"}, {"measurement": "refractive index", "setting": "303.15 K, x1 = 0.273", "value": "1.40564 ± 0.00048"}, {"measurement": "refractive index", "setting": "303.15 K, x1 = 0.3698", "value": "1.40899 ± 0.00051"}, {"measurement": "refractive index", "setting": "303.15 K, x1 = 0.4639", "value": "1.41138 ± 0.00053"}, {"measurement": "refractive index", "setting": "303.15 K, x1 = 0.5701", "value": "1.41349 ± 0.00057"}, {"measurement": "refractive index", "setting": "303.15 K, x1 = 0.6787", "value": "1.41519 ± 0.0006"}, {"measurement": "refractive index", "setting": "303.15 K, x1 = 0.7746", "value": "1.41623 ± 0.00064"}, {"measurement": "refractive index", "setting": "303.15 K, x1 = 0.8707", "value": "1.41713 ± 0.00067"}, {"measurement": "refractive index", "setting": "303.15 K, x1 = 0.9354", "value": "1.41773 ± 0.0007"}, {"measurement": "refractive index", "setting": "303.15 K, x1 = 1", "value": "1.41806 ± 0.00072"}, {"measurement": "refractive index", "setting": "308.15 K, x1 = 0.0956", "value": "1.39469 ± 0.00044"}, {"measurement": "refractive index", "setting": "308.15 K, x1 = 0.1919", "value": "1.40028 ± 0.00046"}, {"measurement": "refractive index", "setting": "308.15 K, x1 = 0.273", "value": "1.40392 ± 0.00048"}, {"measurement": "refractive index", "setting": "308.15 K, x1 = 0.3698", "value": "1.40735 ± 0.00051"}, {"measurement": "refractive index", "setting": "308.15 K, x1 = 0.4639", "value": "1.40987 ± 0.00053"}, {"measurement": "refractive index", "setting": "308.15 K, x1 = 0.5701", "value": "1.41215 ± 0.00057"}, {"measurement": "refractive index", "setting": "308.15 K, x1 = 0.6787", "value": "1.41385 ± 0.0006"}, {"measurement": "refractive index", "setting": "308.15 K, x1 = 0.7746", "value": "1.41512 ± 0.00064"}, {"measurement": "refractive index", "setting": "308.15 K, x1 = 0.8707", "value": "1.41606 ± 0.00067"}, {"measurement": "refractive index", "setting": "308.15 K, x1 = 0.9354", "value": "1.41651 ± 0.0007"}, {"measurement": "refractive index", "setting": "308.15 K, x1 = 1", "value": "1.41676 ± 0.00072"}, {"measurement": "refractive index", "setting": "313.15 K, x1 = 0.0956", "value": "1.39293 ± 0.00044"}, {"measurement": "refractive index", "setting": "313.15 K, x1 = 0.1919", "value": "1.39856 ± 0.00046"}, {"measurement": "refractive index", "setting": "313.15 K, x1 = 0.273", "value": "1.40223 ± 0.00048"}, {"measurement": "refractive index", "setting": "313.15 K, x1 = 0.3698", "value": "1.40568 ± 0.00051"}, {"measurement": "refractive index", "setting": "313.15 K, x1 = 0.4639", "value": "1.40837 ± 0.00053"}, {"measurement": "refractive index", "setting": "313.15 K, x1 = 0.5701", "value": "1.41074 ± 0.00057"}, {"measurement": "refractive index", "setting": "313.15 K, x1 = 0.6787", "value": "1.41265 ± 0.0006"}, {"measurement": "refractive index", "setting": "313.15 K, x1 = 0.7746", "value": "1.41392 ± 0.00064"}, {"measurement": "refractive index", "setting": "313.15 K, x1 = 0.8707", "value": "1.41477 ± 0.00067"}, {"measurement": "refractive index", "setting": "313.15 K, x1 = 0.9354", "value": "1.41522 ± 0.0007"}, {"measurement": "refractive index", "setting": "313.15 K, x1 = 1", "value": "1.41547 ± 0.00072"}, {"measurement": "refractive index", "setting": "318.15 K, x1 = 0.0956", "value": "1.39102 ± 0.00044"}, {"measurement": "refractive index", "setting": "318.15 K, x1 = 0.1919", "value": "1.39677 ± 0.00046"}, {"measurement": "refractive index", "setting": "318.15 K, x1 = 0.273", "value": "1.40049 ± 0.00048"}, {"measurement": "refractive index", "setting": "318.15 K, x1 = 0.3698", "value": "1.40401 ± 0.00051"}, {"measurement": "refractive index", "setting": "318.15 K, x1 = 0.4639", "value": "1.40682 ± 0.00053"}, {"measurement": "refractive index", "setting": "318.15 K, x1 = 0.5701", "value": "1.40945 ± 0.00057"}, {"measurement": "refractive index", "setting": "318.15 K, x1 = 0.6787", "value": "1.41139 ± 0.0006"}, {"measurement": "refractive index", "setting": "318.15 K, x1 = 0.7746", "value": "1.41269 ± 0.00064"}, {"measurement": "refractive index", "setting": "318.15 K, x1 = 0.8707", "value": "1.41373 ± 0.00067"}, {"measurement": "refractive index", "setting": "318.15 K, x1 = 0.9354", "value": "1.41386 ± 0.0007"}, {"measurement": "refractive index", "setting": "318.15 K, x1 = 1", "value": "1.41417 ± 0.00072"}, {"measurement": "refractive index", "setting": "323.15 K, x1 = 0.0956", "value": "1.38925 ± 0.00044"}, {"measurement": "refractive index", "setting": "323.15 K, x1 = 0.1919", "value": "1.39495 ± 0.00046"}, {"measurement": "refractive index", "setting": "323.15 K, x1 = 0.273", "value": "1.39879 ± 0.00048"}, {"measurement": "refractive index", "setting": "323.15 K, x1 = 0.3698", "value": "1.40239 ± 0.00051"}, {"measurement": "refractive index", "setting": "323.15 K, x1 = 0.4639", "value": "1.40529 ± 0.00053"}, {"measurement": "refractive index", "setting": "323.15 K, x1 = 0.5701", "value": "1.40808 ± 0.00057"}, {"measurement": "refractive index", "setting": "323.15 K, x1 = 0.6787", "value": "1.41024 ± 0.0006"}, {"measurement": "refractive index", "setting": "323.15 K, x1 = 0.7746", "value": "1.41151 ± 0.00064"}, {"measurement": "refractive index", "setting": "323.15 K, x1 = 0.8707", "value": "1.41268 ± 0.00067"}, {"measurement": "refractive index", "setting": "323.15 K, x1 = 0.9354", "value": "1.41261 ± 0.0007"}, {"measurement": "refractive index", "setting": "323.15 K, x1 = 1", "value": "1.41288 ± 0.00072"}]}]}
